Measured values taken from patent US11160280B2, “Pesticial compounds” (BASF SE, priority 2017, dated 2021).

Tests used:
Assay type in all cases: in vivo
[1] = system: yellow fever mosquito (Aedes aegypti); experiment: whole plant or invertebrate; settings: 48 h, larval mortality visually assessed after 2 days, read-out: mortality in comparison with untreated controls
Description: Example B1: Action on Yellow Fever Mosquito (Aedes aegypti)
For evaluating control of yellow fever mosquito (Aedes aegypti) the test unit consisted of 96-well-microtiter plates containing 200 μl of tap water per well and 5-15 freshly hatched A. aegypti larvae.
The active compounds were formulated using a solution containing 75% (v/v) water and 25% (v/v) DMSO. Different concentrations of formulated compounds or mixtures were sprayed onto the insect diet at 2.5 μl, using a custom built micro atomizer, at two replications.
After application, microtiter plates were incubated at 28+1° C., 80+5% RH for 2 days. Larval mortality was then visually assessed.

[2] = system: boll weevil (Anthonomus grandis); experiment: Action on boll weevil (Anthonomus grandis), eggs on insect diet in microtiter plates; settings: 120 h, egg and larval mortality after 5 days, read-out: mortality in comparison with untreated controls
Description: Example B3: Action on Boll Weevil (Anthonomus grandis)
For evaluating control of boll weevil (Anthonomus grandis) the test unit consisted of 96-well-microtiter plates containing an insect diet and 5-10 A. grandis eggs.
The compounds were formulated using a solution containing 75% v/v water and 25% v/v DMSO. Different concentrations of formulated compounds were sprayed onto the insect diet at 5 μl, using a custom built micro atomizer, at two replications.
After application, microtiter plates were incubated at about 25±1° C. and about 75±5% relative humidity for 5 days. Egg and larval mortality was then visually assessed.

[3] = system: tobacco budworm (Heliothis virescens); experiment: Action on tobacco budworm (Heliothis virescens), eggs on insect diet in microtiter plates; settings: 120 h, egg and larval mortality after 5 days, read-out: mortality in comparison with untreated controls
Description: Example B5: Action on Tobacco Budworm (Heliothis virescens)
For evaluating control of tobacco budworm (Heliothis virescens) the test unit consisted of 96-well-microtiter plates containing an insect diet and 15-25 H. virescens eggs.
The compounds were formulated using a solution containing 75% v/v water and 25% v/v DMSO. Different concentrations of formulated compounds were sprayed onto the insect diet at 10 μl, using a custom built micro atomizer, at two replications.
After application, microtiter plates were incubated at about 28±1° C. and about 80±5% relative humidity for 5 days. Egg and larval mortality was then visually assessed.

[4] = system: Southern Armyworm (Spodoptera eridania), 2nd Instar Larvae; experiment: Action on southern armyworm (Spodoptera eridania), 2nd instar larvae on sprayed lima bean plants; settings: 96 h, 2nd instar larvae on lima bean plants, 4 days after treatment, read-out: mortality in comparison with untreated controls
Description: Example B7: Action on Southern Armyworm (Spodoptera eridania), 2nd Instar Larvae
The active compounds were formulated by a Tecan liquid handler in 100% cyclohexanone as a 10,000 ppm solution supplied in tubes. The 10,000 ppm solution was serially diluted in 100% cyclohexanone to make interim solutions. These served as stock solutions for which final dilutions were made by the Tecan in 50% acetone:50% water (v/v) into 10 or 20 ml glass vials. A nonionic surfactant (Kinetic®) was included in the solution at a volume of 0.01% (v/v). The vials were then inserted into an automated electrostatic sprayer equipped with an atomizing nozzle for application to plants/insects.
Lima bean plants (variety Sieva) were grown 2 plants to a pot and selected for treatment at the 1st true leaf stage. Test solutions were sprayed onto the foliage by an automated electrostatic plant sprayer equipped with an atomizing spray nozzle. The plants were dried in the sprayer fume hood and then removed from the sprayer. Each pot was placed into perforated plastic bags with a zip closure. About 10 to 11 armyworm larvae were placed into the bag and the bags zipped closed. Test plants were maintained in a growth room at about 25° C. and about 20-40% relative humidity for 4 days, avoiding direct exposure to fluorescent light (24 hour photoperiod) to prevent trapping of heat inside the bags. Mortality and reduced feeding were assessed 4 days after treatment, compared to untreated control plants.

[5] = system: Diamond Back Moth (Plutella xylostella); experiment: Action on diamond back moth (Plutella xylostella), cabbage leaf dip; settings: foliar, 3rd instar larvae on dipped cabbage leaves, mortality 72 hours after treatment, read-out: mortality in comparison with untreated controls
Description: Example B6: Action on Diamond Back Moth (Plutella xylostella)
The active compound is dissolved at the desired concentration in a mixture of 1:1 (vol:vol) distilled water:acetone. Surfactant (Kinetic® HV) is added at a rate of 0.01% (vol/vol). The test solution is prepared at the day of use.
Leaves of cabbage were dipped in test solution and air-dried. Treated leaves were placed in petri dishes lined with moist filter paper and inoculated with ten 3rd instar larvae. Mortality was recorded 72 hours after treatment. Feeding damages were also recorded using a scale of 0-100%.

[6] = system: Orchid thrips (Dichromothrips corbetti); experiment: Action on orchid thrips (Dichromothrips corbetti), floral-immersion technique; settings: adult thrips, mortality 72 hours after treatment, read-out: mortality in comparison with untreated controls
Description: Example B2: Action on Orchid thrips (Dichromothrips corbetti)
Dichromothrips corbetti adults used for bioassay were obtained from a colony maintained continuously under laboratory conditions. For testing purposes, the test compound is diluted in a 1:1 mixture of acetone:water (vol:vol), plus Kinetic® HV at a rate of 0.01% v/v.
Thrips potency of each compound was evaluated by using a floral-immersion technique. All petals of individual, intact orchid flowers were dipped into treatment solution and allowed to dry in Petri dishes. Treated petals were placed into individual re-sealable plastic along with about […]. All test arenas were held under continuous light and a temperature of about 28° C. for duration of the assay. After 3 days, the numbers of live thrips were counted on each petal. The percent mortality was recorded 72 hours after treatment.

CO[C@@H]1[C@@H](OC)[C@H](C)O[C@@H](OC(=O)Nc2ccc3c(NC(=O)c4ccc(OC(F)(F)F)cc4)nn(C)c3c2)[C@@H]1OC [Example C-5, [(2S,3R,4R,5S,6S)-3,4,5-trimethoxy-6-methyl-tetrahydropyran-2-yl] N-[1-methyl-3-[[4-(trifluoromethoxy)benzoyl]amino]indazol-6-yl]carbamate]
≥ 75%: mortality at 800 ppm [1] | mortality at 800 ppm [2]

CC(C)c1ccccc1N1C(=O)CS/C1=N\N=C\c1ccc2c(COc3ccc(OC(F)(F)F)cc3)nsc2c1 [Example C-23, (2Z)-3-(2-isopropylphenyl)-2-[(E)-[3-[[4-(trifluoromethoxy)phenoxy]methyl]-1,2-benzothiazol-6-yl]methylenehydrazono]thiazolidin-4-one]
≥ 75%: mortality at 800 ppm [3] | mortality at 300 ppm [4] | mortality at 800 ppm [2] | mortality at 500 ppm [5]

CC(C)c1ccccc1N1C(=O)CS/C1=N\N=C\c1ccc2c(COc3ccc(OC(F)(F)F)cc3)noc2c1 [Example C-25, (2Z)-3-(2-isopropylphenyl)-2-[(E)-[3-[[4-(trifluoromethoxy)phenoxy]methyl]-1,2-benzoxazol-6-yl]methylenehydrazono]thiazolidin-4-one]
≥ 75%: mortality at 800 ppm [3] | mortality at 800 ppm [1] | mortality at 800 ppm [2] | mortality at 500 ppm [5]

CC(C)c1ccccc1NC(=S)N/N=C/c1ccc2c(COc3ccc(OC(F)(F)F)cc3)nsc2c1 [Example C-22, 1-(2-isopropylphenyl)-3-[(E)-[3-[[4-(trifluoromethoxy)phenoxy]methyl]-1,2-benzothiazol-6-yl]methyleneamino]thiourea]
≥ 75%: mortality at 800 ppm [3] | mortality at 300 ppm [4] | mortality at 800 ppm [2] | mortality at 500 ppm [5]

Cc1cccc(C)c1N1C(=O)CS/C1=N\N=C\c1ccc2c(COc3ccc(OC(F)(F)F)cc3)nn(C)c2c1 [Example C-2, (2Z)-3-(2,6-dimethylphenyl)-2-[(E)-[1-methyl-3-[[4-(trifluoromethoxy)phenoxy]methyl]indazol-6-yl]methylenehydrazono]thiazolidin-4-one]
≥ 75%: mortality at 800 ppm [3] | mortality at 800 ppm [1] | mortality at 800 ppm [2] | mortality at 500 ppm [6] | mortality at 500 ppm [5]

CC(C)c1ccccc1NC(=S)NN=Cc1cc(F)c2c(C(=O)Nc3ccc(OC(F)(F)F)cc3)nn(C)c2c1 [Example C-17, 4-fluoro-6-[[(2-isopropylphenyl)carbamothioylhydrazono]methyl]—1-methyl-N-[4-(trifluoromethoxy)phenyl]indazole-3-carboxamide]
≥ 75%: mortality at 800 ppm [3] | mortality at 300 ppm [4] | mortality at 800 ppm [2]

CC(C)c1ccccc1NC(=S)N/N=C/c1cc2c(cn1)c(COc1ccc(OC(F)(F)F)cc1)nn2C [Example C-15, 1-(2-isopropylphenyl)-3-[(E)-[1-methyl-3-[[4-(trifluoromethoxy)phenoxy]methyl]pyrazolo[4,3-c]pyridin-6 yl]methyleneamino]thiourea]
≥ 75%: mortality at 800 ppm [3] | mortality at 800 ppm [1] | mortality at 300 ppm [4] | mortality at 800 ppm [2] | mortality at 500 ppm [6] | mortality at 500 ppm [5]

CC(C)c1ccccc1N1C(=O)CS/C1=N\N=C\c1ccc2c(COc3ccc(OC(F)(F)F)cc3)nn(C)c2c1 [Example C-4, (2Z)-3-(2-isopropylphenyl)-2-[(E)-[1-methyl-3-[[4-(trifluoromethoxy)phenoxy]methyl]indazol-6-yl]methylenehydrazono]thiazolidin-4-one]
≥ 75%: mortality at 800 ppm [1] | mortality at 800 ppm [2] | mortality at 500 ppm [6] | mortality at 500 ppm [5]

CC(C)c1ccccc1N1C(=O)CS/C1=N\N=C\c1ccc2c(C(=O)Nc3ccc(OC(F)(F)F)cc3)nn(C)c2c1 [Example C-8, 6-[(E)-[(Z)-[3-(2-isopropylphenyl)-4-oxo-thiazolidin-2-ylidene]hydrazono]methyl]-1-methyl-N-[4-(trifluoromethoxy)phenyl]indazole-3-carboxamide]
≥ 75%: mortality at 800 ppm [3] | mortality at 800 ppm [1] | mortality at 300 ppm [4] | mortality at 800 ppm [2] | mortality at 500 ppm [5]

CC(C)c1ccccc1NC(=S)N/N=C/c1ccc2c(C(=O)Nc3ccc(OC(F)(F)F)cc3)nn(C)c2c1 [Example C-7, 6-[(E)-[(2-isopropylphenyl)carbamothioylhydrazono]methyl]-1-methyl-N-[4-(trifluoromethoxy)phenyl]indazole-3-carboxamide]
≥ 75%: mortality at 800 ppm [3] | mortality at 800 ppm [1] | mortality at 300 ppm [4] | mortality at 800 ppm [2] | mortality at 500 ppm [5]

CC(C)c1ccccc1NC(=S)N/N=C/c1ccc2c(COc3ccc(OC(F)(F)F)cc3)noc2c1 [Example C-24, 1-(2-isopropylphenyl)-3-[(E)-[3-[[4-(trifluoromethoxy)phenoxy]methyl]-1,2-benzoxazol-6-yl]methyleneamino]thiourea]
≥ 75%: mortality at 800 ppm [3] | mortality at 800 ppm [2] | mortality at 500 ppm [5]

CC(C)c1ccccc1N1C(=O)CS/C1=N\N=Cc1cc(F)c2c(C(=O)N(C)c3ccc(OC(F)(F)F)cc3)nn(C)c2c1 [Example C-19, 4-fluoro-6-[[(Z)-[3-(2-isopropylphenyl)-4-oxo-thiazolidin-2-ylidene]hydrazono]methyl]-N,1-dimethyl-N-[4-(trifluoromethoxy)phenyl]indazole-3-carboxamide]
≥ 75%: mortality at 800 ppm [3] | mortality at 800 ppm [1] | mortality at 300 ppm [4] | mortality at 800 ppm [2] | mortality at 500 ppm [6] | mortality at 500 ppm [5]

CC(C)c1ccccc1NC(=S)NN=Cc1cc(F)c2c(C(=O)N(C)c3ccc(OC(F)(F)F)cc3)nn(C)c2c1 [Example C-18, 4-fluoro-6-[[(2-isopropylphenyl)carbamothioylhydrazono]methyl]-N,1-dimethyl-N-[4-(trifluoromethoxy)phenyl]indazole-3-carboxamide]
≥ 75%: mortality at 800 ppm [3] | mortality at 300 ppm [4] | mortality at 800 ppm [2] | mortality at 500 ppm [5]

Cc1cccc(C)c1NC(=S)N/N=C/c1ccc2c(COc3ccc(OC(F)(F)F)cc3)nn(C)c2c1 [Example C-1, 1-(2,6-dimethylphenyl)-3-[(E)-[1-methyl-3-[[4-(trifluoromethoxy)phenoxy]methyl]indazol-6-yl]methyleneamino]thiourea]
≥ 75%: mortality at 800 ppm [3] | mortality at 800 ppm [1] | mortality at 300 ppm [4] | mortality at 800 ppm [2] | mortality at 500 ppm [6] | mortality at 500 ppm [5]
